pIC50: −log10 of the molar value.
Molecular target: T1, Na^+ /H^+ Exchanger (Homo sapiens, UniProt P19634)
T1 construct: Human Intestinal Cancer Cells (HT-29); endogenous in cells; host or cells: HT-29
Experiment: Inhibition of the Na^+ /H^+ Exchanger in Human Intestinal Cancer Cells (HT-29)
Type: cell-based
Settings: HT-29 cells; BCECF fluorescence, cytoplasmic pH; 4 minutes at 37° C., pH 7.0
Experimental: Inhibition of the Na^+ /H^+ Exchanger in Human Intestinal Cancer Cells (HT-29):
HT-29 cells were incubated in growth medium at 37° C., 5% CO2. After 3-5 days the growth medium was removed, the cells were washed and charged with 7.5 μM BCECF-AM (pH-sensitive fluorescent dye) at 37° C. without any CO2. After 30 minutes the cells were washed and acidified with the following medium: 70 mM choline chloride, 20 mM NH4 Cl, […], 1.8 mM CaC2, 5 mM glucose and 15 mM HEPES, pH 7.5.
After 6 minutes incubation at 37° C. without CO2, the cells were washed and incubated for 5 minutes with washing medium: 120 mM choline chloride, 5 mM KCl, 1 mM MgCl2, 1.8 mM CaCl2, 5 mM glucose and 15 mM MOPS, pH 7.0. The washing medium was removed and control medium was added with or without the test compound: 120 mM NaCl, 5 mM KCl, 1 mM MgCl2, 1.8 mM CaCl2, 5 mM glucose, 15 mM MOPS, pH 7.0.
The cells were incubated for 4 minutes at 37° C. without CO2 and measured by fluorimetry (CytoFluor 2350). The fluorescence of the dye BCECF was measured at the excitation wavelengths of 485 nm (pH sensitive) and 440 nm (non pH-sensitive) and at the emission wavelength of 530 nm. The cytoplasmic pH was calculated from the ratio of fluorescences at 485 and 440 nm. The fluorescence ratio was calibrated by measuring the fluorescence signal after equilibration of external and internal pH with nigericin.

T1 sequence (P19634 whole entry): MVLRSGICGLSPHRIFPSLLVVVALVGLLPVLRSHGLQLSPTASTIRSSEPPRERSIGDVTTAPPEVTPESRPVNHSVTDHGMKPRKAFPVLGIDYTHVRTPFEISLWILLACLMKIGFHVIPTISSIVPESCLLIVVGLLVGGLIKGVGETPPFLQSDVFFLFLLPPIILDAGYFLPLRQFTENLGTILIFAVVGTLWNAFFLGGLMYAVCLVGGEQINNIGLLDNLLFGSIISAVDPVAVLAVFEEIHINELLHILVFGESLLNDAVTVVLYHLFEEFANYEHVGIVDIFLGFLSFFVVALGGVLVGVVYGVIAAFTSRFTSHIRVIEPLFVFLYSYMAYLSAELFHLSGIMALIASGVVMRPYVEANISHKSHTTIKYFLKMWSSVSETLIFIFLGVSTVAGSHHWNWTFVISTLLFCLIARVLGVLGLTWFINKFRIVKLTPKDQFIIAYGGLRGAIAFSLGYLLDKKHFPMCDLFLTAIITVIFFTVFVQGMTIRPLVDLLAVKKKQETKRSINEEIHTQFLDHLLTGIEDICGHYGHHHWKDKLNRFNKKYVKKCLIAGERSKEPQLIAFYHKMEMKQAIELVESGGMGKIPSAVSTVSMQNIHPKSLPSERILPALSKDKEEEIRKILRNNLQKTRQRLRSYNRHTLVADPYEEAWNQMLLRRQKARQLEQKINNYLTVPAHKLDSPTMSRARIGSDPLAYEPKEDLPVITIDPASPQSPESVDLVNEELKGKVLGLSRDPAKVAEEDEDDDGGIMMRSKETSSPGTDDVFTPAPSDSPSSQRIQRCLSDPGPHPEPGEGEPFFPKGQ

| pIC50 | SMILES |
| --- | --- |
| 6.30 | CN(C)CCN1CCN(c2ccc(C(=O)N=C(N)N)cc2S(C)(=O)=O)CC1 [Example 1] |
| 7.51 | CS(=O)(=O)c1cc(C(=O)N=C(N)N)ccc1N1CCN(C(=O)c2cccs2)CC1 [Example 4] |
| 7.54 | CS(=O)(=O)c1cc(C(=O)N=C(N)N)ccc1N1CCN(C(=O)c2ccco2)CC1 [Example 3] |

From patent US6114335A, “Benzoylguanidine derivatives, process for their preparation their use in the preparation of medicines” (Boehringer Ingelheim KG, priority 1996, dated 2000)
